In ChEMBL document CHEMBL3763139, “Design, synthesis and biological evaluation of novel donepezil-coumarin hybrids as multi-target agents for the treatment of Alzheimer's disease” (Bioorg Med Chem, 2016):
Active and inactive are the calls of the source. The calls are words filed in the database; no cut-off is given here.

Tests used:
[1] = molecular target: T1, Amine oxidase [flavin-containing] A (Homo sapiens, UniProt P21397); experiment: Inhibition of human recombinant MAO-A using p-tyramine substrate at 100 uM after 15 mins by fluorimetric analysis; conditions: 0.25 h
T1 sequence (P21397 whole entry): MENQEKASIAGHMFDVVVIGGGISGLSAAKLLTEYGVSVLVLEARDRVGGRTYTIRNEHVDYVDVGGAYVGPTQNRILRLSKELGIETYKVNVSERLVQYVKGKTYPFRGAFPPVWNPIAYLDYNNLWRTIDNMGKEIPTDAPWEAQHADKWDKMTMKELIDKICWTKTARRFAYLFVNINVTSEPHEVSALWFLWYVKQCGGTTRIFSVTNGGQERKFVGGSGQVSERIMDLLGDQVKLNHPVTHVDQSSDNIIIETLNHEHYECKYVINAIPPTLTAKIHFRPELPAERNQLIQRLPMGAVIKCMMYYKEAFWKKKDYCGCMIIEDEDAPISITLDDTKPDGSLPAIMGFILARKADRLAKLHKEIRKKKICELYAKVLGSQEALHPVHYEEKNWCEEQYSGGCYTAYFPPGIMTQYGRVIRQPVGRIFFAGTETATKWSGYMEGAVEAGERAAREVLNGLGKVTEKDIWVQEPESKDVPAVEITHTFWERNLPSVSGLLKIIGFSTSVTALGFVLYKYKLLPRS

Acetylcholinesterase [2] = molecular target: Acetylcholinesterase (Homo sapiens, UniProt P22303)
Chain of Acetylcholinesterase (Homo sapiens, UniProt P22303) (P22303 whole entry): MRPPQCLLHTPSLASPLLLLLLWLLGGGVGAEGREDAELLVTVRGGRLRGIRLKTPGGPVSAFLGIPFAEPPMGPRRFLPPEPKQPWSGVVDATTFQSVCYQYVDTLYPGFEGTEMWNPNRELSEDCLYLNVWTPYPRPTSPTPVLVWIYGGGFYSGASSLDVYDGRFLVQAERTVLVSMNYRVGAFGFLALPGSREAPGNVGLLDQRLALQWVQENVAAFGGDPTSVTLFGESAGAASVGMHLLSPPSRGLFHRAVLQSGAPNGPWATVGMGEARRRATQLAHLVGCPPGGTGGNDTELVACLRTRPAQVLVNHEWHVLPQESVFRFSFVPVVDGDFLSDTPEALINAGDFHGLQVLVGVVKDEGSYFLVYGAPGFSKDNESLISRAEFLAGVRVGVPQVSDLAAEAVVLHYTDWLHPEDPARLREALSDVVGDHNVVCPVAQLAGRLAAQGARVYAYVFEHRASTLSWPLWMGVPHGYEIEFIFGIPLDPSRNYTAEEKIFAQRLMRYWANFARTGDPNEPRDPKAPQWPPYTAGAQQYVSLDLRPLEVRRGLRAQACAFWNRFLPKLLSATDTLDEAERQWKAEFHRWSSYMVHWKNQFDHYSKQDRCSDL
Description: Inhibition of human erythrocyte AChE using acetylthiocholine iodide as substrate preincubated for 6 mins followed by substrate addition measured up to 180 secs by spectrophotometric-based Ellman's method

Homo sapiens = organism: Homo sapiens; experiment: Selectivity index, ratio of IC50 for human recombinant MAO-A to IC50 for human recombinant MAO-B
[3] = molecular target: T2, Amine oxidase [flavin-containing] B (Homo sapiens, UniProt P27338)
T2 sequence (P27338 whole entry): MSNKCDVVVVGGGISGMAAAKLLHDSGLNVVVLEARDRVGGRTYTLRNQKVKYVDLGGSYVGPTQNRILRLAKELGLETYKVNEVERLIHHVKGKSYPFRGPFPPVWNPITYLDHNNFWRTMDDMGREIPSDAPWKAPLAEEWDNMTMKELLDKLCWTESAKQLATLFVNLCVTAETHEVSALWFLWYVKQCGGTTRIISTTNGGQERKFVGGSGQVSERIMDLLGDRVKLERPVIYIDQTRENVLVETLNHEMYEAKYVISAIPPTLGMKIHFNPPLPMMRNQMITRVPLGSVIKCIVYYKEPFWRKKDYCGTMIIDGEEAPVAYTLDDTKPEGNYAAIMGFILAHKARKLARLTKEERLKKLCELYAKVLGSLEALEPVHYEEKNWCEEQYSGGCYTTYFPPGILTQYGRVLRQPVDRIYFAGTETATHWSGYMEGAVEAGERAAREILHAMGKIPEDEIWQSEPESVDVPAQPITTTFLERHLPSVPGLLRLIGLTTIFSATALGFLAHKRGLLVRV
Description: Inhibition of human recombinant MAO-B using p-tyramine substrate after 15 mins by fluorimetric analysis

Cholinesterase [4] = molecular target: Cholinesterase (Equus caballus, UniProt P81908)
Chain of Cholinesterase (Equus caballus, UniProt P81908) (P81908 whole entry): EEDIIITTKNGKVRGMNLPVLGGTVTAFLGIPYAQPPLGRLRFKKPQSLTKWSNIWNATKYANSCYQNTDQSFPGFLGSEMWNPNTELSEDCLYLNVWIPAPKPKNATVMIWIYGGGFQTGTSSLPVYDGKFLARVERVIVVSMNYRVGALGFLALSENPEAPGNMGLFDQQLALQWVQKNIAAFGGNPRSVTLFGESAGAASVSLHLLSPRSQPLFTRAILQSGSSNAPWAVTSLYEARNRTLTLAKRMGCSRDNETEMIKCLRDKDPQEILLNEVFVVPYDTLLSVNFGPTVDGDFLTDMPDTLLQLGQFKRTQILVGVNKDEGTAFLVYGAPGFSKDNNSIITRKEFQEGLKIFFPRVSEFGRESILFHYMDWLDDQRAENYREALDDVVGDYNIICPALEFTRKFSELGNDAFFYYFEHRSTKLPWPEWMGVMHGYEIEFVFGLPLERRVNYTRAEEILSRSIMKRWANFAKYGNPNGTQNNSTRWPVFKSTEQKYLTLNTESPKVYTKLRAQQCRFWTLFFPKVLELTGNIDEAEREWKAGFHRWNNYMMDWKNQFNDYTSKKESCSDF
Description: Inhibition of equine serum BuChE using S-butyrylthiocholine iodide as substrate preincubated for 6 mins followed by substrate addition measured up to 180 secs by spectrophotometric-based Ellman's method

Cholinesterase [5] = molecular target: Cholinesterase (Homo sapiens, UniProt P06276)
Chain of Cholinesterase (Homo sapiens, UniProt P06276) (P06276 whole entry): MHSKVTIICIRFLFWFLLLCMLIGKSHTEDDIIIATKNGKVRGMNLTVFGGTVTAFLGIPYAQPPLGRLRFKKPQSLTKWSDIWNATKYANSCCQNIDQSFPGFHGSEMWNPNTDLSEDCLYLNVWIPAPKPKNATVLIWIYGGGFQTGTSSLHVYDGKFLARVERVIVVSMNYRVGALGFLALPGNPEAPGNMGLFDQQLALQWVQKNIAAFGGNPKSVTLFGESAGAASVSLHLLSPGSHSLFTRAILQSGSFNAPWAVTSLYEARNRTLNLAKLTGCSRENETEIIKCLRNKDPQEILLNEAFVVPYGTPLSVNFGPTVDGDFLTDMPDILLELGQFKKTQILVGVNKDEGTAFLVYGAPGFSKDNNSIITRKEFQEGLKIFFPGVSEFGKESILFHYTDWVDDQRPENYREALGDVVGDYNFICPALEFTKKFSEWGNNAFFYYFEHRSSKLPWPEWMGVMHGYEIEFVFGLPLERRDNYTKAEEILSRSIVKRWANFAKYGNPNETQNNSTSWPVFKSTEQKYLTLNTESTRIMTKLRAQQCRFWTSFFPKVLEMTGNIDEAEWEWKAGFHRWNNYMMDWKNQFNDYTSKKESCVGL
Description: Inhibition of human serum BuChE using S-butyrylthiocholine iodide as substrate preincubated for 6 mins followed by substrate addition measured up to 180 secs by spectrophotometric-based Ellman's method

Acetylcholinesterase [6] = molecular target: Acetylcholinesterase (Electrophorus electricus, UniProt O42275)
Chain of Acetylcholinesterase (Electrophorus electricus, UniProt O42275) (O42275 whole entry): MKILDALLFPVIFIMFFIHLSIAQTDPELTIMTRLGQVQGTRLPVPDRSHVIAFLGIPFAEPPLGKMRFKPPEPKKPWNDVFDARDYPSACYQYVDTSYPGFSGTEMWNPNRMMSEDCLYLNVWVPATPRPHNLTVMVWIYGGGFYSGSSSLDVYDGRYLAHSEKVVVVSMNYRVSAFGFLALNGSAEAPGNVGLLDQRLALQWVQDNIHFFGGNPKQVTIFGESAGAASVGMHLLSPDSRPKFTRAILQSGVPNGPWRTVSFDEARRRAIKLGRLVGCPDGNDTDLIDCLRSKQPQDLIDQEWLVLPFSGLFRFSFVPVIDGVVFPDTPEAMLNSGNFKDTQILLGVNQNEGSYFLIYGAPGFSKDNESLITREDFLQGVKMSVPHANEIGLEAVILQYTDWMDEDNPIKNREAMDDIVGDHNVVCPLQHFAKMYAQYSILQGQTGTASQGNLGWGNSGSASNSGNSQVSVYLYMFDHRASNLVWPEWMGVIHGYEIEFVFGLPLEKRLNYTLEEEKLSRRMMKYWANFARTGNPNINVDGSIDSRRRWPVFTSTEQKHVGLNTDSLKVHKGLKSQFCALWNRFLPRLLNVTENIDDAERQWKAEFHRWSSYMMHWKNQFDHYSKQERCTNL
Description: Inhibition of electric eel AChE using acetylthiocholine iodide as substrate preincubated for 6 mins followed by substrate addition measured up to 180 secs by spectrophotometric-based Ellman's method

in vitro = conditions: PAMPA, pH 7.4
Description: Permeability of the compound at 25 ug/ml at pH 7.4 after 16 hrs by PAMPA

[7] = molecular target: Cholinesterase (Equus caballus) (UniProt P81908); conditions: 0.44 to 1.74 uM
Chain of Cholinesterase (Equus caballus) (P81908 whole entry): as the sequence (P81908 whole entry) above

[8] = Hepatotoxicity against human HepG2 cells assessed as cell viability at 25 uM after 24 hrs by MTT assay; type: toxicity, cell-based; conditions: read-out: Activity
[9] = Cytotoxicity against human SH-SY5Y cells assessed as cell viability at 25 uM after 24 hrs by MTT assay; type: cell-based; conditions: read-out: Activity
[10] = Cytotoxicity against human SH-SY5Y cells assessed as cell viability at 1 uM after 24 hrs by MTT assay; type: cell-based; conditions: read-out: Activity
[11] = Hepatotoxicity against human HepG2 cells assessed as cell viability at 6.25 uM after 24 hrs by MTT assay; type: toxicity, cell-based; conditions: read-out: Activity
[12] = Cytotoxicity against human SH-SY5Y cells assessed as cell viability at 10 uM after 24 hrs by MTT assay; type: cell-based; conditions: read-out: Activity
[13] = Cytotoxicity against human SH-SY5Y cells assessed as cell viability at 50 uM after 24 hrs by MTT assay; type: cell-based; conditions: read-out: Activity
[14] = Hepatotoxicity against human HepG2 cells assessed as cell viability at 50 uM after 24 hrs by MTT assay; type: toxicity, cell-based; conditions: read-out: Activity
[15] = molecular target: T2, Amine oxidase [flavin-containing] B; experiment: Reversible inhibition of human recombinant MAO-B assessed as enzyme recovery using p-tyramine substrate at 100 times IC50 preincubated for 30 mins followed by 100 fold dilution by fluorimetric analysis relative to control; parameters: scale not given: the % may be the effect or the level left
[16] = Cytotoxicity against human SH-SY5Y cells assessed as cell viability at 5 uM after 24 hrs by MTT assay; type: cell-based; conditions: read-out: Activity
[17] = molecular target: T2, Amine oxidase [flavin-containing] B; experiment: Competitive inhibition of human recombinant MAO-B using p-tyramine substrate at 1.5 to 6 uM after 15 mins by Lineweaver-Burk reciprocal plot analysis; conditions: 0.25 h
[18] = Hepatotoxicity against human HepG2 cells assessed as cell viability at 12.5 uM after 24 hrs by MTT assay; type: toxicity, cell-based; conditions: read-out: Activity
[19] = molecular target: Acetylcholinesterase (Electrophorus electricus) (UniProt O42275); experiment: Mixed type inhibition of electric eel AChE using acetylthiocholine iodide as substrate at 0.44 to 1.74 uM preincubated for 6 mins followed by substrate addition measured up to 180 secs by Lineweaver-Burk reciprocal plot analysis
Chain of Acetylcholinesterase (Electrophorus electricus) (O42275 24-633 limits assumed): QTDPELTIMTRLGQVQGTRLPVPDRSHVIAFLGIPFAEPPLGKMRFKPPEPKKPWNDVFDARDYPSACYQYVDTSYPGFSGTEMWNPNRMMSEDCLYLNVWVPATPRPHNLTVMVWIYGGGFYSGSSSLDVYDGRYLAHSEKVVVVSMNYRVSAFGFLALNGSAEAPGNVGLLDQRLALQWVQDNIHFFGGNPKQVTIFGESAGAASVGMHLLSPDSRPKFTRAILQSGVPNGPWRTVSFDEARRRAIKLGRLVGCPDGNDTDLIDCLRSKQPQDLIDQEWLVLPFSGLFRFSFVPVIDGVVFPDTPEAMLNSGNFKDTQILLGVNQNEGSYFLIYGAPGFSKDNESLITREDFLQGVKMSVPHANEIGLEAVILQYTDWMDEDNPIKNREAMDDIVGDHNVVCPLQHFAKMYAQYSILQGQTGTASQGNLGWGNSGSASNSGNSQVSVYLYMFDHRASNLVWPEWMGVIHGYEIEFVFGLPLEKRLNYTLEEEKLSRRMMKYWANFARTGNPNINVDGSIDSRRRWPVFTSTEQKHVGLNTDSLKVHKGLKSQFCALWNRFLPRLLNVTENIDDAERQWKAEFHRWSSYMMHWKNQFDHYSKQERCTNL

For `Cc1c(Cl)c(=O)oc2cc(OCCNC3CCN(Cc4ccccc4)CC3)ccc12`, the “inhibition (INH)” value [1] was “Not Active”, the IC50 (Acetylcholinesterase [2]) was 1.82 µM and the Ratio IC50 (Homo sapiens) was over 6.8. The IC50 [3] was 14.7 µM, the IC50 (Cholinesterase [4]) was 1.42 µM and the IC50 (Cholinesterase [5]) was 1.68 µM. The IC50 (Acetylcholinesterase [6]) was 1.58 µM.

In the case of `O=c1ccc2ccc(OCCNCCC3CCN(Cc4ccccc4)CC3)cc2o1`, the “inhibition (INH)” value [1] is reported as “Not Active”, the Ratio IC50 (Homo sapiens) is reported as over 3.29 and the IC50 [3] is reported as 30.4 µM. For the same compound, the IC50 (Cholinesterase [4]) was 9.79 µM and the IC50 (Acetylcholinesterase [6]) was 8.91 µM.

For `O=c1oc2cc(OCCNC3CCN(Cc4ccccc4)CC3)ccc2c2c1CCCC2`, the Papp at 16 h, 25 ug/ml (in vitro) was 16.2 ×10⁻⁶ cm/s, the “inhibition (INH)” value [1] was “Not Active” and the IC50 (Acetylcholinesterase [2]) was 1.37 µM. For the same compound, the inhibition [7] was “Active”, the viability at 24 h, 25 µM [8] was 105% and the viability at 24 h, 25 µM [9] was 94.6%. The viability at 24 h, 1 µM [10] was 99.6%, the Ratio IC50 (Homo sapiens) was over 38.2 and the viability at 24 h, 6.25 µM [11] was 101%. For the same compound, the IC50 [3] was 2.62 µM, the viability at 24 h, 10 µM [12] was 97.5% and the viability at 24 h, 50 µM [13] was 92.6%. It also gave an IC50 (Cholinesterase [4]) of 0.93 µM, an IC50 (Cholinesterase [5]) of 1.98 µM and a viability at 24 h, 50 µM [14] of 104%. For the same compound, the Activity [15] was 47%, the viability at 24 h, 5 µM [16] was 102% and the “inhibition (INH)” value [17] was “Active”. The IC50 (Acetylcholinesterase [6]) was 0.87 µM, the viability at 24 h, 12.5 µM [18] was 101% and the inhibition [19] was “Active”.

With `O=c1cc(C(F)(F)F)c2ccc(OCCNC3CCN(Cc4ccccc4)CC3)cc2o1` the “inhibition (INH)” value [1] was “Not Active”, the Ratio IC50 (Homo sapiens) was over 3.51 and the IC50 [3] was 28.5 µM. For the same compound, the IC50 (Cholinesterase [4]) was 10.2 µM and the IC50 (Acetylcholinesterase [6]) was 9.18 µM.

For `O=c1ccc2ccc(OCCCNC3CCN(Cc4ccccc4)CC3)cc2o1`, the “inhibition (INH)” value [1] was “Not Active”, the Ratio IC50 (Homo sapiens) was over 7.94 and the IC50 [3] was 12.6 µM. The IC50 (Cholinesterase [4]) was 9.86 µM and the IC50 (Acetylcholinesterase [6]) was 11.7 µM.

For `O=c1cc(Cl)c2ccc(OCCNC3CCN(Cc4ccccc4)CC3)cc2o1`, the “inhibition (INH)” value [1] was “Not Active”, the IC50 (Acetylcholinesterase [2]) was 2.04 µM and the Ratio IC50 (Homo sapiens) was over 2.95. For the same compound, the IC50 [3] was 33.9 µM, the IC50 (Cholinesterase [4]) was 1.48 µM and the IC50 (Cholinesterase [5]) was 2.93 µM. The IC50 (Acetylcholinesterase [6]) was 1.5 µM.

For `CCOc1cc(=O)oc2cc(OCCNC3CCN(Cc4ccccc4)CC3)ccc12`, the “inhibition (INH)” value [1] was “Not Active”, the Ratio IC50 (Homo sapiens) was over 3.13 and the IC50 [3] was 31.9 µM. It also gave an IC50 (Cholinesterase [4]) of 6.95 µM and an IC50 (Acetylcholinesterase [6]) of 6.34 µM.

In the case of `O=c1ccc2ccc(OCCNC3CCN(Cc4ccccc4)CC3)cc2o1`, the “inhibition (INH)” value [1] is reported as “Not Active”, the Ratio IC50 (Homo sapiens) is reported as over 11.9 and the IC50 [3] is reported as 8.39 µM. It also gave an IC50 (Cholinesterase [4]) of 5.34 µM and an IC50 (Acetylcholinesterase [6]) of 4.42 µM.

With `COc1cc(=O)oc2cc(OCCNC3CCN(Cc4ccccc4)CC3)ccc12` the “inhibition (INH)” value [1] was “Not Active”, the Ratio IC50 (Homo sapiens) was over 2.98 and the IC50 [3] was 33.6 µM. It also gave an IC50 (Cholinesterase [4]) of 5.64 µM and an IC50 (Acetylcholinesterase [6]) of 6.29 µM.

In the case of `Cc1cc2ccc(OCCNC3CCN(Cc4ccccc4)CC3)cc2oc1=O`, the “inhibition (INH)” value [1] is reported as “Not Active”, the Ratio IC50 (Homo sapiens) is reported as over 42 and the IC50 [3] is reported as 2.38 µM. The IC50 (Cholinesterase [4]) was 7.53 µM and the IC50 (Acetylcholinesterase [6]) was 6.03 µM.

For `Cc1cc(=O)oc2cc(OCCNC3CCN(Cc4ccccc4)CC3)ccc12`, the “inhibition (INH)” value [1] was “Not Active”, the Ratio IC50 (Homo sapiens) was over 36.4 and the IC50 [3] was 2.75 µM. For the same compound, the IC50 (Cholinesterase [4]) was 4.38 µM and the IC50 (Acetylcholinesterase [6]) was 5.62 µM.

In the case of `Cc1cc(=O)oc2cc(CNCCC3CCN(Cc4ccccc4)CC3)ccc12`, the “inhibition (INH)” value [1] is reported as “Not Active”, the IC50 (Acetylcholinesterase [2]) is reported as 0.067 µM and the Ratio IC50 (Homo sapiens) is reported as over 2.47. For the same compound, the IC50 [3] was 40.5 µM, the IC50 (Cholinesterase [4]) was 0.96 µM and the IC50 (Cholinesterase [5]) was 3.45 µM. It also gave an IC50 (Acetylcholinesterase [6]) of 0.91 µM.

In the case of `Cc1c(C)c2ccc(OCCNC3CCN(Cc4ccccc4)CC3)cc2oc1=O`, the “inhibition (INH)” value [1] is reported as “Not Active”, the IC50 (Acetylcholinesterase [2]) is reported as 1.69 µM and the Ratio IC50 (Homo sapiens) is reported as over 4.27. The IC50 [3] was 23.4 µM, the IC50 (Cholinesterase [4]) was 1.67 µM and the IC50 (Cholinesterase [5]) was 2.67 µM. For the same compound, the IC50 (Acetylcholinesterase [6]) was 1.48 µM.

In the case of `O=c1cc(-c2ccccc2)c2ccc(OCCNC3CCN(Cc4ccccc4)CC3)cc2o1`, the “inhibition (INH)” value [1] is reported as “Not Active”, the Ratio IC50 (Homo sapiens) is reported as over 2.19 and the IC50 [3] is reported as 45.6 µM. It also gave an IC50 (Cholinesterase [4]) of 8.93 µM and an IC50 (Acetylcholinesterase [6]) of 9.65 µM.

In the case of `Cc1cc(=O)oc2cc(CNC3CCN(Cc4ccccc4)CC3)ccc12`, the “inhibition (INH)” value [1] is reported as “Not Active”, the Ratio IC50 (Homo sapiens) is reported as over 51.8 and the IC50 [3] is reported as 1.93 µM. It also gave an IC50 (Cholinesterase [4]) of 10.8 µM and an IC50 (Acetylcholinesterase [6]) of 7.28 µM.
